Data: publication PMC2193201 (The Journal of Experimental Medicine, 2000)
One block for each compound: values may come before it. Where a SMILES comes first, the peptide text is derived from it.

What was measured:
[1] = target: T1, aminopeptidase M from pig kidney (Sus scrofa, UniProt P15145)
T1 sequence (P15145 whole entry, looked up): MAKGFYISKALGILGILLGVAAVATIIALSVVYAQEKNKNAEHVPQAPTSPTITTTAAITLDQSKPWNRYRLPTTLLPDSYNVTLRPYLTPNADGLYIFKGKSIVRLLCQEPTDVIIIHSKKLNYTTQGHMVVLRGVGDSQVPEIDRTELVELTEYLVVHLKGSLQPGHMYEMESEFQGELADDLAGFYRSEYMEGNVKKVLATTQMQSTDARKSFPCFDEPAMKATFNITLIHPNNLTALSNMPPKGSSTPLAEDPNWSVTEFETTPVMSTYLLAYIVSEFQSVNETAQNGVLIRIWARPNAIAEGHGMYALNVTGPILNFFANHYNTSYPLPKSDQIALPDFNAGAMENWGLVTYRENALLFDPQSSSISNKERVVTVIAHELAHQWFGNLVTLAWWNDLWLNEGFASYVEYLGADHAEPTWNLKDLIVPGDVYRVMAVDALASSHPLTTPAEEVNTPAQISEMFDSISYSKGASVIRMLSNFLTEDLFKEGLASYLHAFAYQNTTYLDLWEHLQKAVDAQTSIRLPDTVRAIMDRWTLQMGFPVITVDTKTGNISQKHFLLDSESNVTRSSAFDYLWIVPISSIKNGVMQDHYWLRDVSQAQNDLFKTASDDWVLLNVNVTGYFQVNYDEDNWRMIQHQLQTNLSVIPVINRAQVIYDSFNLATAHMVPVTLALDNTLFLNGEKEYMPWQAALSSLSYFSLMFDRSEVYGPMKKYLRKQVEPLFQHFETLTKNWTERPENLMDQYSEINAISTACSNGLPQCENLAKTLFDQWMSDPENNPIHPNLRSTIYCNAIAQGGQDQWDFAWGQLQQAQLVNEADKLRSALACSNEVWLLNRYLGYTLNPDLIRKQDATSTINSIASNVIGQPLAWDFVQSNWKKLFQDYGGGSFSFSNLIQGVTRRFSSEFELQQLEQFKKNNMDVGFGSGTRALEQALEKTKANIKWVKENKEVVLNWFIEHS

B*3909 = B*3909 (Homo sapiens, UniProt P01889, A182T/A93T/A95T/C349S/D138N/D201E/E176V/E187T/E204Q/K202T/Q94N/R155S/R180L/S121R/Y123S/Y140F/Y91C); experiment: cell-based
aminopeptidase M = conditions: pig, 37°C, up to 10 min
20S proteasome = experiment: purified 20S proteasome; conditions: human, 37°C, up to 24 h

Compound: THGPPVQL
MALDI-TOF MS peak signal after digestion with aminopeptidase M [1]: reduced almost to background levels

Compound: CC(C)C[C@H](NC(=O)[C@H](Cc1ccc(O)cc1)NC(=O)[C@H](Cc1ccccc1)NC(=O)[C@H](CCC(=O)O)NC(=O)[C@@H](NC(=O)[C@H](CCC(=O)O)NC(=O)[C@H](CC(=O)O)NC(=O)[C@H](CCCNC(=N)N)NC(=O)[C@H](C)N)[C@@H](C)O)C(=O)O (H-ARDETEFYL-OH)
EC50 (B*3909): 5 µM

not cleaved (aminopeptidase M): signals remained strongly significant
Compound: NAc-SHVAVENAL

Compound: CC(C)C[C@H](NC(=O)[C@H](C)NC(=O)[C@@H](NC(=O)[C@@H](NC(=O)CNC(=O)[C@@H]1CCCN1C(=O)[C@H](CCCNC(=N)N)NC(=O)[C@@H](N)Cc1ccc(O)cc1)[C@@H](C)O)C(C)C)C(=O)O [YRPGTVAL] (H-YRPGTVAL-OH)
EC50 (B*3909): 12 µM

cleaved bond (20S proteasome): L9-G10, major
Compound: NAc-SHVAVENALGLDQQFAGLDLNSSDNQSGGS
